# Assay results: patent publication US20240287076A1, “COMPOUNDS FOR TARGETING DEGRADATION OF BRUTON'S TYROSINE KINASE” (BIOGEN MA INC., priority 2021, published 2024)
# Biological target: T1, BTK (Homo sapiens, UniProt Q06187)
# T1 construct: The GM01501.3 cell line endogenously expresses BTK with a HiBiT fusion tag via CRISPR knock-in at its C-terminal region; endogenous in cells; host or cells: GM01501.3 (GM01501 cells engineered by CRISPR knock-in of HiBiT at the BTK locus)
# Test: BTK degradation assay using the HiBiT Method (Nano-Glo HiBiT Lytic Assay, GM01501.3 cells)
# Type: cell-based
# Details: HiBiT Degradation on GM01501.3 BTK @ 6 hours
# Experimental: Selected compounds were tested in a BTK degradation assay using the HiBiT Method. Park Memorial Institute (RPM1) 1640 Medium with phenol red, L-Glutamine, Sodium Pyruvate, and fetal bovine serum (FBS) were purchased from Gibco (Grand Island, NY, USA). Nano-Glo® HiBiT Lytic Assay System was purchased from Promega (Madison, WI, USA). GM01501 cells were obtained from the NIGMS Human Genetic Cell Repository at the Coriell Institute for Medical Research. The GM01501.3 cell line endogenously expresses BTK with a HiBiT fusion tag via CRISPR knock-in at its C-terminal region. It was engineered by electroporation with the Neon Transfection System (Themo Fisher Scientific), according to manufacturer indications. Electroporation conditions: 1 pulse of 1,350 V for 30 ms for 0.5×10_6 cells. Cell culture flasks and 384-well microplates were acquired from VWR (Radnor, PA, USA). BTK degradation was evaluated by quantification of luminescent signal using Nano-Glo® HiBiT Lytic Assay kit. Test compounds were added to the 384-well plate from a top concentration of 10 μM with 11 points, half log titration in duplicates. GM01501.3 cells were added into 384-well plates at a cell density of 10,000 cells per well in a total volume of 30 μl. The plates were kept at 37° C. with 5% CO2 for 6 hours. Negative control wells included cells treated with DMSO only and positive control wells included only growing media, without Nano-Glo® HiBiT Lytic reagent. After a 6-hour incubation, Nano-Glo® HiBiT Lytic Assay reagent was added to the cells following manufacturer indications. Luminescence was acquired on EnVision™ Multilabel Reader (PerkinElmer, Santa Clara, CA, USA). […] “++++” represents a DC50 value of less than 100 nM. “+++” represents a DC50 value of 100 nM-500 nM. “++” represents a DC50 value of 500 nM-1000 nM. “+” represents a DC50 value of greater than 1000 nM.
# T1 sequence (Q06187 whole entry, the tested form may be a part): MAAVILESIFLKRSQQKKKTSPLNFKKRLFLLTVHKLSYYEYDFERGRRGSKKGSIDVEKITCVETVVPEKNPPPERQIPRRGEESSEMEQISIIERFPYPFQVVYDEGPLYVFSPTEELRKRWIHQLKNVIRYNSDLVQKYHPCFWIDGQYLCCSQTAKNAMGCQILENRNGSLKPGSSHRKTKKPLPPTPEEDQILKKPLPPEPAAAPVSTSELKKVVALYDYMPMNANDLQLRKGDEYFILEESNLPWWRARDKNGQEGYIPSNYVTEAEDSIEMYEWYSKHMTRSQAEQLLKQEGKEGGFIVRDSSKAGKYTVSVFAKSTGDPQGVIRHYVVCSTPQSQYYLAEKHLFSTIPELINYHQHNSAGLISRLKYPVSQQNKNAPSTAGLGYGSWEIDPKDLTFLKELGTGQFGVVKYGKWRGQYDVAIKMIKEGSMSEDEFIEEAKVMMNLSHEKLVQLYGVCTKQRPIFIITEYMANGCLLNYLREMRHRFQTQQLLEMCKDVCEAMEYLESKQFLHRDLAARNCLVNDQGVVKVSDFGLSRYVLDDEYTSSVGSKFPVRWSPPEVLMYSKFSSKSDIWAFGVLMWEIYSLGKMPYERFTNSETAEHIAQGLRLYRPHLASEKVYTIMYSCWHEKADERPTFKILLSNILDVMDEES
row,SMILES,DC50 [nM]
1,"Cc1cc(-c2ncnn3cc(-c4ccc(CN5CCC(c6ccc(NC7CCC(=O)NC7=O)cc6)CC5)cc4)cc23)ccc1CNC(=O)c1noc(C(C)(C)C)n1 (racemic) [Example 1, 5-tert-butyl-N-[[4-[6-[4-[[4-[4-[(2,6-dioxo-3-piperidyl)amino]phenyl]-1-piperidyl]methyl]phenyl]pyrrolo[2,1-f][1,2,4]triazin-4-yl]-2-methyl-phenyl]methyl]-1,2,4-oxadiazole-3-carboxamide]",< 100
2,"CC(C)(C)c1nc(C(=O)NCc2ccc(-c3ncnn4cc(CCCCN5CCC(c6ccc(C7(C)CCC(=O)NC7=O)cc6)CC5)cc34)cc2F)no1 (single isomer, unassigned) [Example 141, 5-tert-butyl-N-[[2-fluoro-4-[6-[4-[4-[4-(3-methyl-2,6-dioxo-3-piperidyl)phenyl]-1-piperidyl]butyl]pyrrolo[2,1-f][1,2,4]triazin-4-yl]phenyl]methyl]-1,2,4-oxadiazole-3-carboxamide]",< 100
3,"CO[C@H]1CN(CCc2cc3c(-c4ccc(CNC(=O)c5noc(C(C)(C)C)n5)c(C)c4)ncnn3c2)CC[C@H]1c1ccc2c(N3CCC(=O)NC3=O)nn(C)c2c1 (single isomer, unassigned) [Example 262]",< 100
4,"Cc1cc(-c2ncnn3cc(CCN4CC[C@H](c5ccc6c(N7CCC(=O)NC7=O)nn(C)c6c5)C4)cc23)ccc1CNC(=O)c1noc(C(C)(C)C)n1 (single isomer, unassigned) [Example 265]",< 100
5,"Cc1cc(-c2ncnn3cc(CCN4CC[C@@H](c5ccc6c(N7CCC(=O)NC7=O)nn(C)c6c5)C4)cc23)ccc1CNC(=O)c1noc(C(C)(C)C)n1 (single isomer, unassigned) [Example 266]",< 100
6,"Cc1cc(-c2ncnn3cc(CC[C@@H](F)CN4CCC(c5ccc(C6CCC(=O)NC6=O)cc5)CC4)cc23)ccc1CNC(=O)c1noc(C(C)(C)C)n1 (single isomer, unassigned) [Example 286]",< 100
7,"Cc1cc(-c2ncnn3cc(CC[C@@H](F)CN4CCN(c5ccc(C6CCC(=O)NC6=O)cn5)CC4)cc23)ccc1CNC(=O)c1noc(C(C)(C)C)n1 (single isomer, unassigned) [Example 287]",< 100
8,"Cc1cc(-c2ncnn3cc(OCCCN4CCC[C@@H](c5ccc6c(N7CCC(=O)NC7=O)nn(C)c6c5)C4)cc23)ccc1CNC(=O)c1noc(C(C)(C)C)n1 (single isomer, unassigned) [Example 292]",< 100
9,"Cc1cc(-c2ncnn3cc(-c4ccc(CN5CCC(c6ccc(NC7CCC(=O)NC7=O)cc6)CC5)cc4)cc23)ccc1CNC(=O)c1noc(C(C)(C)C)n1 (single isomer, unassigned; isomer 1) [Example 2, 5-tert-butyl-N-[[4-[6-[4-[[4-[4-[(2,6-dioxo-3-piperidyl)amino]phenyl]-1-piperidyl]methyl]phenyl]pyrrolo[2,1-f][1,2,4]triazin-4-yl]-2-methyl-phenyl]methyl]-1,2,4-oxadiazole-3-carboxamide isomer 1]",< 100
10,"Cc1cc(-c2ncnn3cc(-c4ccc(CN5CCC(c6ccc(NC7CCC(=O)NC7=O)cc6)CC5)cc4)cc23)ccc1CNC(=O)c1noc(C(C)(C)C)n1 (single isomer, unassigned; isomer 2) [Example 3, 5-tert-butyl-N-[[4-[6-[4-[[4-[4-[(2,6-dioxo-3-piperidyl)amino]phenyl]-1-piperidyl]methyl]phenyl]pyrrolo[2,1-f][1,2,4]triazin-4-yl]-2-methyl-phenyl]methyl]-1,2,4-oxadiazole-3-carboxamide isomer 2]",< 100
11,"Cc1cc(-c2ncnn3cc(-c4ccc(CN5CCC(c6ccc(C7CCC(=O)NC7=O)cc6)CC5)cc4)cc23)ccc1CNC(=O)c1noc(C(C)(C)C)n1 (stereo not drawn) [Example 4, 5-tert-butyl-N-[[4-[6-[4-[[4-[4-(2,6-dioxo-3-piperidyl)phenyl]-1-piperidyl]methyl]phenyl]pyrrolo[2,1-f][1,2,4]triazin-4-yl]-2-methyl-phenyl]methyl]-1,2,4-oxadiazole-3-carboxamide]",< 100
12,"Cc1cc(-c2ncnn3cc(-c4ccc(CN5CCC(c6ccc(NC7CCC(=O)NC7=O)cc6)CC5(C)C)cc4)cc23)ccc1CNC(=O)c1noc(C(C)(C)C)n1 (stereo not drawn) [Example 5, 5-tert-butyl-N-[[4-[6-[4-[[4-[4-[(2,6-dioxo-3-piperidyl)amino]phenyl]-2,2-dimethyl-1-piperidyl]methyl]phenyl]pyrrolo[2,1-f][1,2,4]triazin-4-yl]-2-methyl-phenyl]methyl]-1,2,4-oxadiazole-3-carboxamide]",< 100
13,"Cc1cc(-c2ncnn3cc(-c4ccc(CN5C6CCC5CC(c5ccc(NC7CCC(=O)NC7=O)cc5)C6)cc4)cc23)ccc1CNC(=O)c1noc(C(C)(C)C)n1 (stereo not drawn) [Example 6, 5-tert-butyl-N-[[4-[6-[4-[[3-[4-[(2,6-dioxo-3-piperidyl)amino]phenyl]-8-azabicyclo[3.2.1]octan-8-yl]methyl]phenyl]pyrrolo[2,1-f][1,2,4]triazin-4-yl]-2-methyl-phenyl]methyl]-1,2,4-oxadiazole-3-carboxamide]",< 100
14,"Cc1cc(-c2ncnn3cc(-c4ccc(CN5CCCC(c6ccc(NC7CCC(=O)NC7=O)cc6)C5)cc4)cc23)ccc1CNC(=O)c1noc(C(C)(C)C)n1 (stereo not drawn) [Example 7, 5-tert-butyl-N-[[4-[6-[4-[[3-[4-[(2,6-dioxo-3-piperidyl)amino]phenyl]-1-piperidyl]methyl]phenyl]pyrrolo[2,1-f][1,2,4]triazin-4-yl]-2-methyl-phenyl]methyl]-1,2,4-oxadiazole-3-carboxamide]",< 100
15,"Cc1cc(-c2ncnn3cc(-c4ccc(CN5CCCC(c6ccc(C7CCC(=O)NC7=O)cc6)C5)cc4)cc23)ccc1CNC(=O)c1noc(C(C)(C)C)n1 (stereo not drawn) [Example 8, 5-tert-butyl-N-[[4-[6-[4-[[3-[4-(2,6-dioxo-3-piperidyl)phenyl]-1-piperidyl]methyl]phenyl]pyrrolo[2,1-f][1,2,4]triazin-4-yl]-2-methyl-phenyl]methyl]-1,2,4-oxadiazole-3-carboxamide]",100 to 500
16,"Cc1cc(-c2ncnn3cc(-c4ccc(CN5CCC(c6ccc(C7CCC(=O)NC7=O)cc6F)CC5)cc4)cc23)ccc1CNC(=O)c1noc(C(C)(C)C)n1 (stereo not drawn) [Example 9, 5-tert-butyl-N-[[4-[6-[4-[[4-[4-(2,6-dioxo-3-piperidyl)-2-fluoro-phenyl]-1-piperidyl]methyl]phenyl]pyrrolo[2,1-f][1,2,4]triazin-4-yl]-2-methyl-phenyl]methyl]-1,2,4-oxadiazole-3-carboxamide]",< 100
17,"Cc1cc(-c2ncnn3cc(-c4ccc(CN5CCC(c6c(F)cc(C7CCC(=O)NC7=O)cc6F)CC5)cc4)cc23)ccc1CNC(=O)c1noc(C(C)(C)C)n1 (stereo not drawn) [Example 10, 5-tert-butyl-N-[[4-[6-[4-[[4-[4-(2,6-dioxo-3-piperidyl)-2,6-difluoro-phenyl]-1-piperidyl]methyl]phenyl]pyrrolo[2,1-f][1,2,4]triazin-4-yl]-2-methyl-phenyl]methyl]-1,2,4-oxadiazole-3-carboxamide]",< 100
18,"Cc1cc(-c2ncnn3cc(-c4ccc(CN(C)CCCc5ccc(NC6CCC(=O)NC6=O)cc5)cc4)cc23)ccc1CNC(=O)c1noc(C(C)(C)C)n1 (stereo not drawn) [Example 11, 5-tert-butyl-N-[[4-[6-[4-[[3-[4-[(2,6-dioxo-3-piperidyl)amino]phenyl]propyl-methyl-amino]methyl]phenyl]pyrrolo[2,1-f][1,2,4]triazin-4-yl]-2-methyl-phenyl]methyl]-1,2,4-oxadiazole-3-carboxamide]",< 100
